Results published in ChEMBL document CHEMBL1201862, “PubChem BioAssay data set” (2004).
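Compound exposure: 48 hours, 5 concentrations, 96-well plates. Here, GI50 denotes the concentration required for 50% inhibition of growth.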 Activity calls are given as the source filed them. Rule as the data show it: active = GI50 up to about 1.1 µM and inactive = higher.

Columns and labels:
Test in all cases: DTP human tumour cell line panel, 48 h
M19-MEL = system: M19-MEL
M14 = system: M14
MOLT-4 = system: MOLT-4
NCI-H23 = system: NCI-H23
SF-295 = system: SF-295
HCT-15 = system: HCT-15
SN12C = system: SN12C
HT-29 = system: HT-29
SNB-75 = system: SNB-75
SK-OV-3 = system: SK-OV-3
NCI-H522 = system: NCI-H522
Malme-3M = system: Malme-3M
COLO 205 = system: COLO 205
A549 = system: A549
CCRF-CEM = system: CCRF-CEM
SR = system: SR
LXFL 529 = system: LXFL 529
DMS-273 = system: DMS-273
HCC 2998 = system: HCC 2998
EKVX = system: EKVX
OVCAR-8 = system: OVCAR-8
UO-31 = system: UO-31
UACC-257 = system: UACC-257
OVCAR-5 = system: OVCAR-5
TK-10 = system: TK-10
HOP-92 = system: HOP-92
K562 = system: K562
SF-268 = system: SF-268
SNB-19 = system: SNB-19
U-251 = system: U-251
SK-MEL-28 = system: SK-MEL-28
SF-539 = system: SF-539
786-0 = system: 786-0
UACC-62 = system: UACC-62
HOP-18 = system: HOP-18
HCT-116 = system: HCT-116
NCI-H226 = system: NCI-H226
KM-20L2 = system: KM-20L2
CAKI-1 = system: CAKI-1
HL-60 = system: HL-60
SW-620 = system: SW-620
HOP-62 = system: HOP-62
ACHN = system: ACHN
LOX IMVI = system: LOX IMVI
KM12 = system: KM12
OVCAR-4 = system: OVCAR-4
SK-MEL-2 = system: SK-MEL-2
DLD-1 = system: DLD-1
IGROV-1 = system: IGROV-1
SK-MEL-5 = system: SK-MEL-5
DMS-114 = system: DMS-114
XF498 = system: XF498
OVCAR-3 = system: OVCAR-3
A498 = system: A498
SNB-78 = system: SNB-78
NCI-H460 = system: NCI-H460

## [O-]c1c2cc(-[n+]3c(-c4ccccc4)cc(-c4ccccc4)cc3-c3ccccc3)cc1COCCOCCOCCOCCOC2
M19-MEL
  GI50: 30.8 µM (inactive)
M14
  GI50: 37.4 µM (inactive)
MOLT-4
  GI50: 32.1 µM (inactive)
NCI-H23
  GI50: 41.9 µM (inactive)
SF-295
  GI50: 43.8 µM (inactive)
HCT-15
  GI50: 73.6 µM
SN12C
  GI50: 38.8 µM (inactive)
HT-29
  GI50: 35.6 µM (inactive)
SNB-75
  GI50: 41.7 µM (inactive)
SK-OV-3
  GI50: 57.8 µM (inactive)
NCI-H522
  GI50: 35.6 µM (inactive)
Malme-3M
  GI50: 34.2 µM (inactive)
COLO 205
  GI50: 18.7 µM (inactive)
A549
  GI50: 60 µM (inactive)
CCRF-CEM
  GI50: 43.6 µM (inactive)
SR
  GI50: 26.2 µM (inactive)
LXFL 529
  GI50: 21.2 µM (inactive)
DMS-273
  GI50: 45.9 µM (inactive)
HCC 2998
  GI50: 41.7 µM (inactive)
EKVX
  GI50: 33.9 µM (inactive)
OVCAR-8
  GI50: 31.5 µM (inactive)
UO-31
  GI50: 85.3 µM (inactive)
UACC-257
  GI50: 24 µM (inactive)
OVCAR-5
  GI50: > 100 µM (inactive)
TK-10
  GI50: 57.5 µM (inactive)
HOP-92
  GI50: 26 µM (inactive)
K562
  GI50: 34 µM (inactive)
SF-268
  GI50: 29 µM (inactive)
SNB-19
  GI50: 73.5 µM (inactive)
U-251
  GI50: 38.8 µM (inactive)
SK-MEL-28
  GI50: 18 µM (inactive)
SF-539
  GI50: 33 µM (inactive)
786-0
  GI50: 54.5 µM (inactive)
UACC-62
  GI50: 19.5 µM (inactive)
HOP-18
  GI50: 57.3 µM (inactive)
HCT-116
  GI50: 32.8 µM (inactive)
NCI-H226
  GI50: > 100 µM (inactive)
KM-20L2
  GI50: 31.3 µM (inactive)
CAKI-1
  GI50: > 100 µM (inactive)
HL-60
  GI50: 31.8 µM (inactive)
SW-620
  GI50: 48.9 µM (inactive)
HOP-62
  GI50: 37 µM (inactive)
ACHN
  GI50: > 100 µM (inactive)
LOX IMVI
  GI50: 43 µM (inactive)
KM12
  GI50: 20.4 µM (inactive)
OVCAR-4
  GI50: 59.4 µM (inactive)
SK-MEL-2
  GI50: 21.7 µM (inactive)
DLD-1
  GI50: 44 µM (inactive)

## CCn1c2ccccc2c2c(-c3ccccc3)cc3c(c21)C(=O)N(c1ccccc1)C3=O
M19-MEL
  GI50: > 100 µM (inactive)
M14
  GI50: > 100 µM (inactive)
MOLT-4
  GI50: > 100 µM (inactive)
NCI-H23
  GI50: > 100 µM (inactive)
SF-295
  GI50: > 100 µM (inactive)
HCT-15
  GI50: > 100 µM
IGROV-1
  GI50: > 100 µM (inactive)
SK-MEL-5
  GI50: > 100 µM (inactive)
SN12C
  GI50: 91 µM (inactive)
SNB-75
  GI50: 89.5 µM (inactive)
SK-OV-3
  GI50: > 100 µM (inactive)
NCI-H522
  GI50: > 100 µM (inactive)
Malme-3M
  GI50: > 100 µM (inactive)
DMS-114
  GI50: > 100 µM (inactive)
COLO 205
  GI50: > 100 µM (inactive)
A549
  GI50: > 100 µM (inactive)
CCRF-CEM
  GI50: > 100 µM (inactive)
XF498
  GI50: > 100 µM (inactive)
SR
  GI50: > 100 µM (inactive)
LXFL 529
  GI50: > 100 µM (inactive)
DMS-273
  GI50: 46.2 µM (inactive)
HCC 2998
  GI50: > 100 µM (inactive)
OVCAR-3
  GI50: > 100 µM (inactive)
EKVX
  GI50: > 100 µM (inactive)
OVCAR-8
  GI50: > 100 µM (inactive)
UO-31
  GI50: > 100 µM (inactive)
UACC-257
  GI50: > 100 µM (inactive)
OVCAR-5
  GI50: > 100 µM (inactive)
TK-10
  GI50: > 100 µM (inactive)
HOP-92
  GI50: 34.4 µM (inactive)
K562
  GI50: > 100 µM (inactive)
SF-268
  GI50: 76.6 µM (inactive)
SNB-19
  GI50: 81.5 µM (inactive)
A498
  GI50: > 100 µM (inactive)
U-251
  GI50: > 100 µM (inactive)
SK-MEL-28
  GI50: > 100 µM (inactive)
SF-539
  GI50: > 100 µM (inactive)
786-0
  GI50: > 100 µM (inactive)
UACC-62
  GI50: > 100 µM (inactive)
HCT-116
  GI50: 95.5 µM (inactive)
NCI-H226
  GI50: > 100 µM (inactive)
KM-20L2
  GI50: > 100 µM (inactive)
SNB-78
  GI50: > 100 µM (inactive)
CAKI-1
  GI50: > 100 µM (inactive)
HL-60
  GI50: > 100 µM (inactive)
SW-620
  GI50: > 100 µM (inactive)
HOP-62
  GI50: > 10 µM (inactive)
ACHN
  GI50: 99.8 µM (inactive)
NCI-H460
  GI50: 36.6 µM (inactive)
LOX IMVI
  GI50: > 100 µM (inactive)
KM12
  GI50: > 100 µM (inactive)
OVCAR-4
  GI50: > 100 µM (inactive)
SK-MEL-2
  GI50: > 100 µM (inactive)
DLD-1
  GI50: > 100 µM (inactive)
